Assay results: ChEMBL document CHEMBL4393695, “Thiazole orange - Spermine conjugate: A potent human telomerase inhibitor comparable to BRACO-19” (Eur J Med Chem, 2019)
Activity calls are given as the source filed them. The calls are words filed in the database; no cut-off is given here.

Tests used:
HeLa [1] = assay: Inhibition of DNA polymerase activity in human HeLa cell lysate at 50 uM in presence of [32P]-labeled template primer by TRAP assay; format: subcellular
[2] = target: Telomerase reverse transcriptase (Homo sapiens) (UniProt O14746); conditions: HeLa, Lysate, 50 uM
Telomerase reverse transcriptase (Homo sapiens), sequence (O14746 whole entry): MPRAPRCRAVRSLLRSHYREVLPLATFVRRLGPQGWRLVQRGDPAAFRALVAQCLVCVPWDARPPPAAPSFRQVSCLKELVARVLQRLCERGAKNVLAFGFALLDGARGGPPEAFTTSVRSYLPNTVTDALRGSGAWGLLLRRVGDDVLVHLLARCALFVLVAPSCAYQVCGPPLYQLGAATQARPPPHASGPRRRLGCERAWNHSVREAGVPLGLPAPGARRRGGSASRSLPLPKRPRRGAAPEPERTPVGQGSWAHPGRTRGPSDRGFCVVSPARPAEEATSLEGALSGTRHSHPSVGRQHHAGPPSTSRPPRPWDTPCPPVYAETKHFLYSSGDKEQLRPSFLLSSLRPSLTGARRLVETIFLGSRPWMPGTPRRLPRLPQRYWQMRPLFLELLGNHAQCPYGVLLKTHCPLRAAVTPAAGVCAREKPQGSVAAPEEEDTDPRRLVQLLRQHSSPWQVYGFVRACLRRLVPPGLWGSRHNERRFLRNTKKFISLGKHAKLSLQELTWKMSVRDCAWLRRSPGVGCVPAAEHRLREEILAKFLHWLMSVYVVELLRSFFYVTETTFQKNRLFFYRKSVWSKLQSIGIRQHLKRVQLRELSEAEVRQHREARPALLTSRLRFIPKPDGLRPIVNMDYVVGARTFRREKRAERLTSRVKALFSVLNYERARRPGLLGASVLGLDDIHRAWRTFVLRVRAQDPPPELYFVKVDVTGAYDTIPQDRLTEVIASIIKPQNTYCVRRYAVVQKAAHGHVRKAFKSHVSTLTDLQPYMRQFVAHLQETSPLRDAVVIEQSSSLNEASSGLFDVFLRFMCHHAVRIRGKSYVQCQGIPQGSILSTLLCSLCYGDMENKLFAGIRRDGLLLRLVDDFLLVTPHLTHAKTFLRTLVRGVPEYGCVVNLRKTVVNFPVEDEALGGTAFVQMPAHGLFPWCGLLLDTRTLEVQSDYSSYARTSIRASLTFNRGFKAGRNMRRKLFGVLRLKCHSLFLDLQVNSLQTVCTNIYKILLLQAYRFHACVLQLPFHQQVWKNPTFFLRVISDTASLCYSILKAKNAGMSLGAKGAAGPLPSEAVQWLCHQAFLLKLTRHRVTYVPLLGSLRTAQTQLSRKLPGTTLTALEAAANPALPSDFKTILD
Description: Inhibition of telomerase activity in human HeLa cell lysate at 50 uM in presence of [32P]-labeled template primer by TRAP assay

Quadruplex DNA [3] = assay: Binding affinity to G-quadruplex G2 DNA (unknown origin) assessed as increase in deltaTm at compound to DNA ratio of 10:1 by fluorescence thermal denaturation analysis; format: nucleic-acid assay
Quadruplex DNA [4] = assay: Binding affinity to G-quadruplex G1 DNA (unknown origin) assessed as melting temperature at compound to DNA ratio of 4:1 in presence of 100 mM K+ by circular dichroism thermal denaturation analysis (Rvb= 52.6 degC); format: nucleic-acid assay
Quadruplex DNA [5] = assay: Binding affinity to G-quadruplex G1 DNA (unknown origin) assessed as melting temperature at compound to DNA ratio of 4:1 in presence of 150 mM Na+ by circular dichroism thermal denaturation analysis (reference value: 57.4 degC); format: nucleic-acid assay
[6] = target: Telomerase reverse transcriptase (Homo sapiens) (UniProt O14746); assay: Inhibition of telomerase activity in human HeLa cell lysate at 6.25 uM in presence of [32P]-labeled template primer by TRAP assay; format: subcellular
HeLa [7] = assay: Inhibition of DNA polymerase activity in human HeLa cell lysate at 6.25 uM in presence of [32P]-labeled template primer by TRAP assay; format: subcellular
[8] = target: Telomerase reverse transcriptase (Homo sapiens) (UniProt O14746); assay: Inhibition of telomerase activity in human HeLa cell lysate at 10 uM in presence of [32P]-labeled template primer by TRAP assay; format: subcellular
[9] = target: Telomerase reverse transcriptase (Homo sapiens) (UniProt O14746); assay: Inhibition of telomerase activity in human HeLa cell lysate at 0.625 uM in presence of [32P]-labeled template primer by TRAP assay; format: subcellular
HeLa [10] = assay: Inhibition of DNA polymerase activity in human HeLa cell lysate at <10 uM in presence of [32P]-labeled template primer by TRAP assay; format: subcellular
[11] = target: Telomerase reverse transcriptase (Homo sapiens) (UniProt O14746); assay: Inhibition of telomerase activity in human HeLa cell lysate at <10 uM in presence of [32P]-labeled template primer by TRAP assay; format: subcellular
[12] = target: Telomerase reverse transcriptase (Homo sapiens) (UniProt O14746); conditions: HeLa, Lysate, 10 to 100 uM
Description: Inhibition of telomerase activity in human HeLa cell lysate at 10 to 100 uM in presence of [32P]-labeled template primer by TRAP assay

HeLa [13] = conditions: Homo sapiens, Lysate, 10 to 100 uM
Description: Inhibition of DNA polymerase activity in human HeLa cell lysate at 10 to 100 uM in presence of [32P]-labeled template primer by TRAP assay

Quadruplex DNA [14] = assay: Binding affinity to human G-quadruplex G1 DNA assessed as equilibrium dissociation constant at 0.5 uM incubated for 30 mins under dark condition by fluorometric titration analysis; format: nucleic-acid assay
dsDNA = assay: Binding affinity to 17 mer duplex D1 DNA (unknown origin) assessed as equilibrium dissociation constant at 0.5 uM incubated for 30 mins under dark condition by fluorometric titration analysis; format: nucleic-acid assay
[15] = Ratio of Kd for human G-quadruplex G1 DNA to Kd for 17 mer duplex D1 DNA (unknown origin) by flourimetric titration analysis
Quadruplex DNA [16] = assay: Binding affinity to human G-quadruplex G1 DNA assessed as increase in fluorescence at 0.5 uM incubated for 30 mins in dark by fluorescence titration analysis relative to control; format: nucleic-acid assay
HeLa [17] = assay: Inhibition of DNA polymerase activity in human HeLa cell lysate at 10 uM in presence of [32P]-labeled template primer by TRAP assay; format: subcellular
Quadruplex DNA [18] = assay: Binding affinity to G-quadruplex G2 DNA (unknown origin) assessed as change in melting temperature at compound to DNA ratio of 7:1 by fluorescence thermal denaturation analysis; format: nucleic-acid assay
[19] = target: Telomerase reverse transcriptase (Homo sapiens) (UniProt O14746); assay: Inhibition of telomerase activity in human HeLa cell lysate in presence of [32P]-labeled template primer by TRAP assay; format: subcellular
HeLa [20] = assay: Inhibition of DNA polymerase activity in human HeLa cell lysate at 0.625 to 10 uM in presence of [32P]-labeled template primer by TRAP assay; format: subcellular
Quadruplex DNA [21] = assay: Ratio of thiazole orange Kd to compound Kd for human G-quadruplex G1 DNA at 0.5 uM incubated for 30 mins in dark by fluorimetric titration analysis; format: nucleic-acid assay
[22] = target: Telomerase reverse transcriptase (Homo sapiens) (UniProt O14746); assay: Inhibition of telomerase activity in human HeLa cell lysate at 6.25 uM in presence of [32P]-labeled template primer by TRAP assay relative to control; format: subcellular
HeLa [23] = assay: Inhibition of DNA polymerase activity in human HeLa cell lysate at 6.25 uM in presence of [32P]-labeled template primer by TRAP assay relative to control; format: subcellular
HeLa [24] = assay: Inhibition of DNA polymerase activity in human HeLa cell lysate at 5 uM in presence of [32P]-labeled template primer by TRAP assay; format: subcellular
[25] = target: Telomerase reverse transcriptase (Homo sapiens) (UniProt O14746); assay: Inhibition of telomerase activity in human HeLa cell lysate at 0.156 to 2.5 uM in presence of [32P]-labeled template primer by TRAP assay; format: subcellular
[26] = target: Telomerase reverse transcriptase (Homo sapiens) (UniProt O14746); assay: Inhibition of telomerase activity in human HeLa cell lysate at 0.078 uM in presence of [32P]-labeled template primer by TRAP assay; format: subcellular
HeLa [27] = assay: Inhibition of DNA polymerase activity in human HeLa cell lysate at 0.156 to 2.5 uM in presence of [32P]-labeled template primer by TRAP assay; format: subcellular
[28] = target: Telomerase reverse transcriptase (Homo sapiens) (UniProt O14746); assay: Inhibition of telomerase activity in human HeLa cell lysate at 5 uM in presence of [32P]-labeled template primer by TRAP assay; format: subcellular
[29] = target: Telomerase reverse transcriptase (Homo sapiens) (UniProt O14746); assay: Inhibition of telomerase activity in human HeLa cell lysate at <=2.5 uM in presence of [32P]-labeled template primer by TRAP assay; format: subcellular
HeLa [30] = assay: Inhibition of DNA polymerase activity in human HeLa cell lysate at <=2.5 uM in presence of [32P]-labeled template primer by TRAP assay; format: subcellular
[31] = target: Telomerase reverse transcriptase (Homo sapiens) (UniProt O14746); assay: Inhibition of telomerase activity in human HeLa cell lysate at 0.039 to 10 uM in presence of [32P]-labeled template primer by TRAP assay; format: subcellular

Structure (SMILES)	Activity (Quadruplex DNA [3])	Tm (Quadruplex DNA [4]) [°C]	Tm (Quadruplex DNA [5]) [°C]	inhibition [6]	inhibition (HeLa [7])	Ratio [15]	fold change (FC) (Quadruplex DNA [16])	further results
C[n+]1ccc(-c2c3nc(c(-c4cc[n+](C)cc4)c4ccc([nH]4)c(-c4cc[n+](C)cc4)c4ccc([nH]4)c(-c4cc[n+](C)cc4)c4nc2C=C4)C=C3)cc1								inhibition (HeLa [1]): Active; inhibition [2]: Active
C[n+]1c(/C=C2\C=CN(CC(=O)NCCNCCNCCN)c3ccccc32)sc2ccccc21	Active	62.4	58.5	Active	inactive			inhibition [8]: Active; inhibition [9]: inactive; inhibition (HeLa [10]): inactive; inhibition [11]: Active
O=C1c2ccc3c4ccc5c6c(ccc(c7ccc(c2c37)C(=O)N1CCN1CCCCC1)c64)C(=O)N(CCN1CCCCC1)C5=O								inhibition [8]: inactive
NCCCNCCCCNCCCN								inhibition [12]: inactive; inhibition (HeLa [13]): inactive
C[n+]1c(/C=C2\C=CN(CC(=O)NCCOCCN3CCCCC3)c3ccccc32)sc2ccccc21	Active	64.9	60.5	Active	inactive	3.57	200	Kd (Quadruplex DNA [14]): 2180 nM; Kd (dsDNA): 710 nM
C[n+]1c(/C=C2\C=CN(CC(=O)NCCCNCCCN)c3ccccc32)sc2ccccc21	Active	60.5	61.5	Active	inactive	2.8	200	KdH (Quadruplex DNA [14]): 0.14 µM; KdL (Quadruplex DNA [14]): 0.95 µM; KdH (dsDNA): 0.05 µM; KdL (dsDNA): 0.92 µM; inhibition [8]: Active; inhibition (HeLa [17]): Active; inhibition [9]: Active; inhibition (HeLa [10]): inactive; inhibition [11]: Active
C[n+]1c(/C=C2\C=CN(CC(=O)NCCOCCN3CCCC3)c3ccccc32)sc2ccccc21	Active	59.7	60.5	Active	inactive	2.7	200	Kd (Quadruplex DNA [14]): 1650 nM; Kd (dsDNA): 610 nM
C[n+]1c(/C=C2\C=CN(CC(=O)O)c3ccccc32)sc2ccccc21		54	57.1	inactive	inactive			
C[n+]1c(/C=C2\C=CN(CC(=O)NCCN3CCCC3)c3ccccc32)sc2ccccc21		69.4	62.5	Active	inactive	0.79	200	ΔTm (Quadruplex DNA [18]): 7.1 °C; KdH (Quadruplex DNA [14]): 0.3 µM; KdL (Quadruplex DNA [14]): 1.77 µM; Kd (dsDNA): 380 nM; EC [19]: 2.5 µM; inhibition (HeLa [20]): inactive
C[n+]1c(/C=C2\C=CN(CC(=O)NCCOCCOCCOCCN)c3ccccc32)sc2ccccc21	Active	59.4	57	inactive	inactive			
CN1C=C/C(=C\c2sc3ccccc3[n+]2C)c2ccccc21								Kd (Quadruplex DNA [14]): 870 nM; Kd (dsDNA): 400 nM
CN1/C(=C/c2cc[n+](C)c3ccccc23)Sc2ccccc21		63.4	60	Active		2.18	340	
C[n+]1c(/C=C2\C=CN(CC(=O)NCCOCCN)c3ccccc32)sc2ccccc21	Active	58.7	56	inactive	inactive			
C[n+]1c(/C=C2\C=CN(CC(=O)NCCCNCCCCNCCCN)c3ccccc32)sc2ccccc21		71	65			2.33	200	ΔTm (Quadruplex DNA [18]): 6.9 °C; KdH (Quadruplex DNA [14]): 0.07 µM; KdL (Quadruplex DNA [14]): 1.73 µM; Ratio (Quadruplex DNA [21]): 12.4; KdH (dsDNA): 0.03 µM; KdL (dsDNA): 0.65 µM; inhibition [22]: 100%; inhibition (HeLa [23]): 100%; inhibition [8]: 100%; inhibition (HeLa [17]): 100%; inhibition (HeLa [24]): Active; inhibition [25]: Active; inhibition [26]: inactive; inhibition (HeLa [27]): inactive; inhibition [28]: 100%
C[n+]1c(/C=C2\C=CN(CC(=O)NCCN3CCCCC3)c3ccccc32)sc2ccccc21	Active	64	56	Active	inactive	4.18	200	Kd (Quadruplex DNA [14]): 1130 nM; Kd (dsDNA): 270 nM; EC [19]: 5 µM; inhibition (HeLa [20]): inactive
C[n+]1c(/C=C2\C=CN(CC(=O)NCCN)c3ccccc32)sc2ccccc21	Active	59.2	57.5	inactive	inactive			
C[n+]1c(/C=C2\C=CN(CC(=O)NCCCN)c3ccccc32)sc2ccccc21	Active	60.2	56.5	inactive	inactive			
CN(C)c1ccc(Nc2c3ccc(NC(=O)CCN4CCCC4)cc3nc3cc(NC(=O)CCN4CCCC4)ccc23)cc1								inhibition [8]: Active; inhibition (HeLa [17]): Active; inhibition [29]: Active; inhibition (HeLa [30]): inactive; inhibition [31]: Active
C/C(=C\C(=O)Nc1ccccc1C(=O)O)c1ccc2ccccc2c1								inhibition [2]: Active
C[n+]1c(/C=C2\C=CN(CC(=O)NCCCCCCN)c3ccccc32)sc2ccccc21	Active	62.3	60	Active	inactive			
